From patent US11629171B2, “Beta-hairpin peptidomimetics” (POLYPHOR AG, priority 2017, dated 2023)
Values after ≈ are worked out from the molar mass of the structure shown. Where a SMILES comes first, the peptide text is derived from it. Bridges are numbered along the chain shown (N, C = ends). Roman numbers before positions name the chains, in order. [ ]: non-standard residue; d: D form. Tle = CC(C)(C)[C@H](N)C(=O)O; NMeV = CN[C@H](C(=O)O)C(C)C; dDab = NCC[C@@H](N)C(=O)O; hSer = N[C@@H](CCO)C(=O)O; Orn = NCCC[C@H](N)C(=O)O; Dab = NCC[C@H](N)C(=O)O; Dap = NC[C@H](N)C(=O)O

Legend:
Assay type in all cases: cell-based
[1] = system: Acinetobacter baumannii DSM 30008; settings: DSM 30008
Protocol: (§1) The in vitro antimicrobial activities of the peptides were determined in 96-well plates (Greiner, polystyrene) by the standard CLSI broth microdilution method (Clinical and Laboratory Standards Institute 2014. Performance standards for antimicrobial susceptibility testing, 24th informational supplement. Approved standard CLSI M100-S24; Clinical and Laboratory Standards Institute, Wayne, Pa.). The following microorganisms were used to determine antibiotic activity of the peptides: Escherichia coli ATCC 25922, Klebsiella pneumoniae SSI #3010^a), Acinetobacter baumannii DSM 30008, Pseudomonas aeruginosa ATCC 27853 and the clinical isolates Escherichia coli 926415^b), Klebsiella pneumoniae 968733^b), Acinetobacter baumannii 872842^b), Enterobacter cloacae 848840^b) and Escherichia coli MCR-1 Af45^c). Before preparation of inocula, Escherichia coli MCR-1 Af45 was subcultured on Mueller-Hinton II (MH-cation adjusted) agar containing 2 μg/mL colistin. ^a) Obtained from Statens Serum Institut (SSI), Copenhagen, Denmark^b) Obtained from International Health Management Associates, Inc. (IHMA Europe Sàrl), Epalinges, Switzerland^c) Obtained from Prof. Patrice Nordmann, University of Fribourg, Fribourg, Switzerland
(§2) Inocula of the microorganisms were diluted into Mueller-Hinton II (MH-cation adjusted) broth and compared with a 0.5 McFarland standard to give appr. 10^6 colony forming units (CFU)/mL. Aliquots (90 μL) of inoculum were added to 10 μL of MH-II broth+P-80 (Polysorbate 80, 0.002% final concentration, v/v) containing the peptide in serial two-fold dilutions. Antimicrobial activities of the peptides were expressed as the minimal inhibitory concentration (MIC) in μg/mL at which no visible growth was observed after 18-20 hours of incubation at 35° C.

[2] = system: Escherichia coli ATCC 25922; settings: ATCC 25922
Protocol: as §1, §2

[3] = system: Klebsiella pneumoniae SSI #3010; settings: SSI #3010
Protocol: as §1, §2

[4] = system: Pseudomonas aeruginosa ATCC 27853; settings: ATCC 27853
Protocol: as §1, §2

[5] = system: human red blood cells (hRBC); assay: Hemolysis; settings: red cells of human, 1 h, 200
Protocol: The peptides were tested for their hemolytic activity against human red blood cells (hRBC). Fresh hRBC were washed four times with phosphate buffered saline (PBS) and centrifuged for 10 min at 3000×g. Compounds (200 μg/mL) were incubated with 20% hRBC (v/v) for 1 h at 37° C. and shaking at 300 rpm. A value of 0% and 100% cell lysis, respectively, was determined by incubation of hRBC in the presence of PBS containing 10% water and 2% Triton X-100 in H2O, respectively. The samples were centrifuged, the supernatants were ˜7.5-fold diluted in PBS buffer and the optical densities (OD) were measured at 540 nm and blank corrected. The 100% lysis value (OD540Triton X-100) gave an OD540 of approximately 0.5-1.0.
Percent hemolysis was calculated as follows: (OD540peptide/OD540Triton X-100)×100%.

SMILES	MIC [1]	MIC [2]	MIC [3]	MIC [4]	Hemolysis at 200 μg/mL [5]
CC(=O)N[C@H](C(=O)N[C@@H](CCN)C(=O)N[C@@H](Cc1ccc(O)cc1)C(=O)N[C@@H](CN)C(=O)N[C@@H](CCC(=O)N[C@@H](CCN)C(=O)N[C@H](C(=O)N[C@@H](CN)C(=O)N[C@H]1CCNC(=O)[C@H]([C@@H](C)O)NC(=O)[C@H](CCN)NC(=O)[C@H](CCN)NC(=O)[C@H](CC(C)C)NC(=O)[C@@H](CC(C)C)NC(=O)[C@H](CCN)NC1=O)[C@@H](C)O)C(=O)N[C@H](CCN)C(=O)N[C@@H](CO)C(=O)N[C@@H](Cc1c[nH]c2ccccc12)C(=O)N[C@@H](CO)C(=O)N[C@H](C(=O)N[C@@H](CCC(=O)O)C(=O)N[C@@H](CO)C(N)=O)C(C)(C)C)C(C)C [Ex. 229] (I: Ac-V[Dab]Y[Dap]E[dDab]SWS[Tle]ES-NH2 / II: [Dab]T[Dap][Dab][Dab][dL]L[Dab][Dab]T; amide I:5-II:N; lactam II:4-II:C)	0.5 µg/mL (≈ 0.206 µM)	0.125 µg/mL (≈ 0.0516 µM)	0.125 µg/mL (≈ 0.0516 µM)	0.5 µg/mL (≈ 0.206 µM)	2%
CN[C@H](C(=O)N[C@H](C(=O)N[C@@H](Cc1ccc(O)cc1)C(=O)N[C@H]1CSSC[C@@H](C(=O)N[C@H](C(=O)N[C@@H](C)C(=O)N[C@@H](CO)C(N)=O)C(C)C)NC(=O)[C@H](Cc2c[nH]c3ccccc23)NC(=O)[C@H](CCO)NC(=O)[C@@H](CCN)NC(=O)[C@H](CCC(=O)N[C@@H](CCN)C(=O)N[C@H](C(=O)N[C@@H](CCN)C(=O)N[C@H]2CCNC(=O)[C@H]([C@@H](C)O)NC(=O)[C@H](CCN)NC(=O)[C@H](CCN)NC(=O)[C@H](CC(C)C)NC(=O)[C@@H](CC(C)C)NC(=O)[C@H](CCN)NC2=O)[C@@H](C)O)NC1=O)[C@@H](C)O)C(C)C [Ex. 183] (I: H-[NMeV]TYCE[dDab][hSer]WCVAS-NH2 / II: [Dab]T[Dab][Dab][Dab][dL]L[Dab][Dab]T; disulfide I:4-I:9; amide I:5-II:N; lactam II:4-II:C)	0.25 µg/mL (≈ 0.105 µM)	0.125 µg/mL (≈ 0.0524 µM)	0.25 µg/mL (≈ 0.105 µM)	0.125 µg/mL (≈ 0.0524 µM)	<1%
CC(=O)N[C@H](C(=O)N[C@H]1CCCNC(=O)[C@@H](CCCCN)NC(=O)[C@H](C(C)(C)C)NC(=O)[C@H](CO)NC(=O)[C@H](Cc2c[nH]c3ccccc23)NC(=O)[C@H](CCO)NC(=O)[C@@H](CCN)NC(=O)[C@H](CCC(=O)N[C@@H](CCN)C(=O)N[C@H](C(=O)N[C@@H](CN)C(=O)N[C@H]2CCNC(=O)[C@H]([C@@H](C)O)NC(=O)[C@H](CCN)NC(=O)[C@H](CCN)NC(=O)[C@H](CC(C)C)NC(=O)[C@@H](CC(C)C)NC(=O)[C@H](CCN)NC2=O)[C@@H](C)O)NC(=O)[C@H](CO)NC(=O)[C@H](Cc2ccc(O)cc2)NC1=O)C(C)C [Ex. 30] (I: Ac-V[Orn]YSE[dDab][hSer]WS[Tle][dK] / II: [Dab]T[Dap][Dab][Dab][dL]L[Dab][Dab]T; lactam I:2-I:C, II:4-II:C; amide I:5-II:N)	0.125 µg/mL (≈ 0.0532 µM)	0.0625 µg/mL (≈ 0.0266 µM)	0.125 µg/mL (≈ 0.0532 µM)	0.25 µg/mL (≈ 0.106 µM)	<1%
CC(=O)N[C@H](C(=O)N[C@H](C(=O)N[C@@H](Cc1ccc(O)cc1)C(=O)N[C@H]1CC(=O)NCC[C@@H](C(=O)N[C@H](C(=O)N[C@@H](C)C(=O)N[C@@H](CO)C(N)=O)C(C)C)NC(=O)[C@H](Cc2c[nH]c3ccccc23)NC(=O)[C@H](CCO)NC(=O)[C@@H](CCN)NC(=O)[C@H](CCC(=O)N[C@@H](CCN)C(=O)N[C@H](C(=O)N[C@@H](CCN)C(=O)N[C@H]2CCNC(=O)[C@H]([C@@H](C)O)NC(=O)[C@H](CCN)NC(=O)[C@H](CCN)NC(=O)[C@H](CC(C)C)NC(=O)[C@@H](CC(C)C)NC(=O)[C@H](CCN)NC2=O)[C@@H](C)O)NC1=O)[C@@H](C)O)C(C)C [Ex. 187] (I: Ac-VTYDE[dDab][hSer]W[Dab]VAS-NH2 / II: [Dab]T[Dab][Dab][Dab][dL]L[Dab][Dab]T; lactam I:4-I:9, II:4-II:C; amide I:5-II:N)	0.5 µg/mL (≈ 0.208 µM)	0.125 µg/mL (≈ 0.052 µM)	0.25 µg/mL (≈ 0.104 µM)	0.5 µg/mL (≈ 0.208 µM)	<1%
CC(=O)N[C@@H](CCN)C(=O)N[C@H](C(=O)N[C@@H](CN)C(=O)N[C@@H](Cc1ccc(O)cc1)C(=O)N[C@H]1CSSC[C@@H](C(=O)N[C@H](C(N)=O)C(C)(C)C)NC(=O)[C@H](Cc2c[nH]c3ccccc23)NC(=O)[C@H](CCN)NC(=O)[C@@H](CCN)NC(=O)[C@H](CCC(=O)N[C@@H](CCN)C(=O)N[C@H](C(=O)N[C@@H](CN)C(=O)N[C@H]2CCNC(=O)[C@H]([C@@H](C)O)NC(=O)[C@H](CCN)NC(=O)[C@H](CCN)NC(=O)[C@H](CC(C)C)NC(=O)[C@@H](CC(C)C)NC(=O)[C@H](CCN)NC2=O)[C@@H](C)O)NC1=O)C(C)C [Ex. 14] (I: Ac-[Dab]V[Dap]YCE[dDab][Dab]WC[Tle]-NH2 / II: [Dab]T[Dap][Dab][Dab][dL]L[Dab][Dab]T; disulfide I:5-I:10; amide I:6-II:N; lactam II:4-II:C)	0.5 µg/mL (≈ 0.214 µM)	0.25 µg/mL (≈ 0.107 µM)	0.5 µg/mL (≈ 0.214 µM)	0.25 µg/mL (≈ 0.107 µM)	<1%
CN[C@H](C(=O)N[C@@H](CN)C(=O)N[C@@H](Cc1ccc(O)cc1)C(=O)N[C@H]1CSSC[C@@H](C(=O)N[C@H](C(=O)N[C@@H](C)C(=O)N[C@@H](CO)C(N)=O)C(C)(C)C)NC(=O)[C@H](Cc2c[nH]c3ccccc23)NC(=O)[C@H]([C@@H](C)O)NC(=O)[C@@H](CCN)NC(=O)[C@H](CCC(=O)N[C@@H](CCN)C(=O)N[C@H](C(=O)N[C@@H](CCN)C(=O)N[C@H]2CCNC(=O)[C@H]([C@@H](C)O)NC(=O)[C@H](CCN)NC(=O)[C@H](CCN)NC(=O)[C@H](CC(C)C)NC(=O)[C@@H](CC(C)C)NC(=O)[C@H](CCN)NC2=O)[C@@H](C)O)NC1=O)C(C)C [Ex. 180] (I: H-[NMeV][Dap]YCE[dDab]TWC[Tle]AS-NH2 / II: [Dab]T[Dab][Dab][Dab][dL]L[Dab][Dab]T; disulfide I:4-I:9; amide I:5-II:N; lactam II:4-II:C)	0.25 µg/mL (≈ 0.105 µM)	0.125 µg/mL (≈ 0.0525 µM)	0.5 µg/mL (≈ 0.21 µM)	0.125 µg/mL (≈ 0.0525 µM)	<1%
CC(=O)N[C@H](C(=O)N[C@H](C(=O)N[C@@H](Cc1ccc(O)cc1)C(=O)N[C@@H](CCN)C(=O)N[C@@H](CCC(=O)N[C@@H](CCN)C(=O)N[C@H](C(=O)N[C@@H](CN)C(=O)N[C@H]1CCNC(=O)[C@H]([C@@H](C)O)NC(=O)[C@H](CCN)NC(=O)[C@H](CCN)NC(=O)[C@H](CC(C)C)NC(=O)[C@@H](CC(C)C)NC(=O)[C@H](CCN)NC1=O)[C@@H](C)O)C(=O)N[C@H](CCN)C(=O)N[C@H](C(=O)N[C@@H](Cc1c[nH]c2ccccc12)C(=O)N[C@@H](CCC(=O)O)C(=O)N[C@H](C(=O)N[C@@H](C)C(=O)N[C@@H](CO)C(N)=O)C(C)(C)C)[C@@H](C)O)[C@@H](C)O)C(C)C [Ex. 230] (I: Ac-VTY[Dab]E[dDab]TWE[Tle]AS-NH2 / II: [Dab]T[Dap][Dab][Dab][dL]L[Dab][Dab]T; amide I:5-II:N; lactam II:4-II:C)	1 µg/mL (≈ 0.41 µM)	0.25 µg/mL (≈ 0.103 µM)	0.5 µg/mL (≈ 0.205 µM)	1 µg/mL (≈ 0.41 µM)	<1%
CC(C)C[C@@H]1NC(=O)[C@@H](CC(C)C)NC(=O)[C@H](CCN)NC(=O)[C@@H](NC(=O)[C@H](CCN)NC(=O)[C@@H](NC(=O)[C@H](CCN)NC(=O)CC[C@@H]2NC(=O)[C@H](CCN)NC(=O)[C@H](Cc3ccc(O)cc3)NC(=O)[C@@H](NC(=O)[C@@H](N)C(C)C)CCC(=O)NCC[C@@H](C(=O)N[C@@H](CO)C(=O)O)NC(=O)[C@H](C(C)(C)C)NC(=O)[C@H](CO)NC(=O)[C@H](Cc3c[nH]c4ccccc34)NC(=O)[C@H]([C@@H](C)O)NC(=O)[C@@H](CCN)NC2=O)[C@@H](C)O)CCNC(=O)[C@H]([C@@H](C)O)NC(=O)[C@H](CCN)NC(=O)[C@H](CCN)NC1=O [Ex. 56] (I: H-VEY[Dab]E[dDab]TWS[Tle][Dab]S-OH / II: [Dab]T[Dab][Dab][Dab][dL]L[Dab][Dab]T; lactam I:2-I:11, II:4-II:C; amide I:5-II:N)	1 µg/mL (≈ 0.415 µM)	0.5 µg/mL (≈ 0.208 µM)	1 µg/mL (≈ 0.415 µM)	0.5 µg/mL (≈ 0.208 µM)	<1%
